# Reference: paper PMC4380750 (Bioorganic & medicinal chemistry, 2015)
# Experiments:
# [1] = molecular target: T1, MOR (Mus musculus, UniProt P42866); assay: biochemical; settings: for Emax: read-out: MOR [35S]GTPγS Binding %Emax of DAMGO; for less potent than naltrexone in the MOR [35S]GTPγS binding assay: EC50 compared with naltrexone
# [2] = tested on: KOR; settings: electrically stimulated guinea pig ileal longitudinal muscle; cited from earlier work
# [3] = tested on: KOR; settings: binding affinity; cited from earlier work
# [4] = molecular target: hMOR (Homo sapiens, UniProt P35372); assay: Ca2+ flux assay in Gαqi5 transfected hMOR-CHO cells; format: cell-based; settings: for agonism, increase of intracellular Ca2+ level: agonism study, compared to DAMGO
# hMOR, sequence (P35372 whole entry): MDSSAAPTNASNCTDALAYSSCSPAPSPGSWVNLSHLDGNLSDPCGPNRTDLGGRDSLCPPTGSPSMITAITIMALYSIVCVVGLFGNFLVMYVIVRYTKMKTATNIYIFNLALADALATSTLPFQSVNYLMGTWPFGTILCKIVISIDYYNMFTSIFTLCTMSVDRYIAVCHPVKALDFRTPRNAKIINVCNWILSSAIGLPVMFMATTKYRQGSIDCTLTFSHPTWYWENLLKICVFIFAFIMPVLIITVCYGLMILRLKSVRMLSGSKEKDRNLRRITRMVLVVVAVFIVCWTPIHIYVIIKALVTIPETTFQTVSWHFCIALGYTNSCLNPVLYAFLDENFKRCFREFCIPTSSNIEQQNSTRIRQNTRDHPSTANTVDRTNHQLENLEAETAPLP
# [5] = molecular target: KOR (Mus musculus, UniProt P33534); assay: KOR [35S]GTPγS binding functional assay; format: biochemical
# KOR (Mus musculus, UniProt P33534), sequence (P33534 whole entry): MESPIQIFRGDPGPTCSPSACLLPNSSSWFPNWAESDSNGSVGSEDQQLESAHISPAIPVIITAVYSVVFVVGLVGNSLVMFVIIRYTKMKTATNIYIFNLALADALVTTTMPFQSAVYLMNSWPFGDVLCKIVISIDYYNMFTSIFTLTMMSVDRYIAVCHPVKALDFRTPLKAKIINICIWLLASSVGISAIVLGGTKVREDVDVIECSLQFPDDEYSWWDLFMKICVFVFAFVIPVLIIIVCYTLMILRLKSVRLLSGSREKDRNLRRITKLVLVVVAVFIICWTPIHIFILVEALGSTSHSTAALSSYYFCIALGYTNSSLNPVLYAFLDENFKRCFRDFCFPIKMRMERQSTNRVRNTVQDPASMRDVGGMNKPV
# [6] = tested on: Swiss-Webster mice; assay: Opioid withdrawal assays in chronic morphine-pelleted mice; format: in vivo, mouse
# [7] = molecular target: T2, DOR (Mus musculus, UniProt P32300); assay: DOR [35S]GTPγS binding functional assay; format: biochemical; settings: vs naltrexone
# T2 sequence (P32300 whole entry): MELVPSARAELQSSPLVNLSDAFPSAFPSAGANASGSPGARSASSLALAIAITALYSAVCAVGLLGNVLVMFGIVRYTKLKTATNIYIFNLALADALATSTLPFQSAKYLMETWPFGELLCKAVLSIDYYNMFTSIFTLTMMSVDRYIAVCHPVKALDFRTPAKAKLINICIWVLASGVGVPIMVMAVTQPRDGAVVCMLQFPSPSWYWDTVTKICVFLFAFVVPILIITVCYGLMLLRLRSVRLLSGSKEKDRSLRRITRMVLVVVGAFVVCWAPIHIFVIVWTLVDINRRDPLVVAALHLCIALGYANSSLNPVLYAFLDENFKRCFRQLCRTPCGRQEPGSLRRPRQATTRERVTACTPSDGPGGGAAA
# [8] = tested on: Swiss-Webster mice; assay: Warm-water tail immersion assay, agonism study; format: in vivo, mouse
# [9] = molecular target: T1, MOR; format: binding
# [10] = molecular target: T2, DOR; assay: Radioligand competition binding assay, [3H]naltrindole, mDOR-CHO cell membranes; settings: ratio of Ki values, MOR vs DOR
# [11] = 1 mg/kg s.c., morphine-pelleted mice, counted over 20 min
# T1 sequence (P42866 whole entry): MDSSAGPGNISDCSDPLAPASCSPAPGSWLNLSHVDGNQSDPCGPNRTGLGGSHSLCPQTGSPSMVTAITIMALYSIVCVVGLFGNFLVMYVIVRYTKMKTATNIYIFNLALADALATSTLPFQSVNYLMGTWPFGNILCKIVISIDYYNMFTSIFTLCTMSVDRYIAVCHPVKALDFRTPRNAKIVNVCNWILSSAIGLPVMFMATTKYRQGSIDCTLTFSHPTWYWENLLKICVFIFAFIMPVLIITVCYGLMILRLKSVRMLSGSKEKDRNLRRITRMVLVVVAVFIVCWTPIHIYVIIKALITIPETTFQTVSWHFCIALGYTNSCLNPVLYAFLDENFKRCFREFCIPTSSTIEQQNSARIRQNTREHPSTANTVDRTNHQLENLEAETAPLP
compound,measurement,setting,value
"O=C(Cc1cc2ccccc2cn1)N[C@H]1CC[C@@]2(O)[C@H]3Cc4ccc(O)c5c4[C@@]2(CCN3CC2CC2)[C@H]1O5 [Compound 1, 17-Cyclopropylmethyl-3,14β-dihydroxy-4,5α-epoxy-6α-[2-(isoquinolin-3-yl)acetamido)morphinan]",Emax,[1],18.6 ± 1.1%
NC(N)=Nc1ccc2c3c([nH]c2c1)[C@@H]1Oc2c(O)ccc4c2[C@@]12CCN(CC1CC1)[C@H](C4)[C@]2(O)C3 [6’-GNTI],functional activity at KOR,[2],KOR full agonist
"O=C(N[C@H]1CC[C@@]2(O)[C@H]3Cc4ccc(O)c5c4[C@@]2(CCN3CC2CC2)[C@H]1O5)c1ncc2ccccc2n1 [Compound 7, 17-Cyclopropylmethyl-3,14β-dihydroxy-4,5α-epoxy-6α-(4-quinazoline-2-carboxamido)morphinan]",Emax,[1],21.6 ± 0.8%
"O=C(CCc1cc2ccccc2cn1)N[C@H]1CC[C@@]2(O)[C@H]3Cc4ccc(O)c5c4[C@@]2(CCN3CC2CC2)[C@H]1O5 [Compound 2, 17-Cyclopropylmethyl-3,14β-dihydroxy-4,5α-epoxy-6α-[3-(isoquinolin-3-yl)propanamido)morphinan]",Emax,[1],27.4 ± 0.35%
"N#Cc1nc(C(=O)N[C@H]2CC[C@@]3(O)[C@H]4Cc5ccc(O)c6c5[C@@]3(CCN4CC3CC3)[C@H]2O6)cc2ccccc12 [Compound 9, 17-Cyclopropylmethyl-3,14β-dihydroxy-4,5α-epoxy-6α-(1-cyanoisoquinoline-3-carboxamido)morphinan]",Emax,[1],37.5 ± 0.7%
"NC(N)=Nc1ccc2[nH]c3c(c2c1)C[C@@]1(O)[C@H]2Cc4ccc(O)c5c4[C@@]1(CCN2CC1CC1)[C@H]3O5 [5’-GNTI, 5’-guanidinonaltrindole]",5’-GNTI more potent than 6’-GNTI at the KOR,[3],8 fold
same,functional activity at KOR,[2],KOR antagonist
"O=C(N[C@H]1CC[C@@]2(O)[C@H]3Cc4ccc(O)c5c4[C@@]2(CCN3CC2CC2)[C@H]1O5)c1cc2cc([N+](=O)[O-])ccc2cn1 [Compound 11, 17-Cyclopropylmethyl-3,14β-dihydroxy-4,5α-epoxy-6α-(6-nitroisoquinoline-3-carboxamido)morphinan]","agonism, increase of intracellular Ca2+ level",[4],no apparent agonism
same,"KOR [35S]GTPγS potency, lower than that of NAQ",[5]; vs NAQ,~6 fold
same,"KOR [35S]GTPγS potency, less potent than naltrexone",[5]; vs naltrexone,~80 fold
same,withdrawal symptoms in placebo-pelleted mice,"[6]; 30 mg/kg s.c., placebo-pelleted mice",did not induce any significant withdrawal symptoms
same,"escape jumps in morphine-pelleted mice, dose dependence","[6]; s.c., doses up to 100 mg/kg, plateau at 100 mg/kg",did not precipitate significant jumps in morphine-pelleted mice until 30 mg/kg
same,wet-dog shakes in morphine-pelleted mice compared to naltrexone,"[6]; s.c., doses up to 100 mg/kg, vs naltrexone 1 mg/kg",significantly less wet-dog shakes
same,"DOR [35S]GTPγS potency, less potent compared to naltrexone",[7],7- to 25 fold
same,less potent than naltrexone in the MOR [35S]GTPγS binding assay,[1],≥ 200 fold
"CN1Cc2ccccc2C[C@H]1C(=O)N[C@H]1CC[C@@]2(O)[C@H]3Cc4ccc(O)c5c4[C@@]2(CCN3CC2CC2)[C@H]1O5 [Compound 15, 17-Cyclopropylmethyl-3,14β-dihydroxy-4,5α-epoxy-6α-[(S)-(2-methyl-1,2,3,4-tetrahydroisoquinoline-3-carboxamido)]morphinan]",Emax,[1],24.8 ± 1.3%
"COc1c(C(=O)N[C@H]2CC[C@@]3(O)[C@H]4Cc5ccc(O)c6c5[C@@]3(CCN4CC3CC3)[C@H]2O6)nc(Cl)c2ccccc12 [Compound 4, 17-Cyclopropylmethyl-3,14β-dihydroxy-4,5α-epoxy-6α-(1-chloro-4-methoxyisoquinoline-3-carboxamido)morphinan]","agonism, increase of intracellular Ca2+ level",[4],did not show any significant agonist activity
same,higher potency of 4 to 11 in Ca2+ flux antagonism study,[4]; vs compound 11,100 fold
same,"% MPE, intrinsic antinociceptive effect","[8]; 10 mg/kg s.c., 20 min after injection, mice, 56 °C",full agonist
same,difference between the potencies of 4 and morphine in the tail immersion assay,[8]; vs morphine,~9 fold
same,4 more potent than 11 in the radioligand competition binding assay,[9],about 10 fold
same,Emax,"[5]; read-out: KOR [35S]GTPγS Binding % Emax of U50,488",7.1 ± 0.5%
same,"DOR [35S]GTPγS potency, less potent compared to naltrexone",[7],7- to 25 fold
same,difference between the potencies of 4 and morphine in the MOR [35S]GTPγS binding assay,[1],~70 fold
"O=C1CC[C@@]2(O)[C@H]3Cc4ccc(O)c5c4[C@@]2(CCN3CC2CC2)[C@H]1O5 [NTX, naltrexone, reference compound]",escape jumps,[6]; [11],30.0 ± 12.1 times
same,wet-dog shakes,[6]; [11],14.8 ± 2.2 times
"COc1cc2cnc(C(=O)N[C@H]3CC[C@@]4(O)[C@H]5Cc6ccc(O)c7c6[C@@]4(CCN5CC4CC4)[C@H]3O7)cc2cc1OC [Compound 14, 17-Cyclopropylmethyl-3,14β-dihydroxy-4,5α-epoxy-6α-(6,7-dimethoxyisoquinoline-3-carboxamido)morphinan]",less potent than naltrexone in the MOR [35S]GTPγS binding assay,[1],≥ 200 fold
"O=C(N[C@H]1CC[C@@]2(O)[C@H]3Cc4ccc(O)c5c4[C@@]2(CCN3CC2CC2)[C@H]1O5)c1nc(Cl)c2ccccc2c1O [Compound 5, 17-Cyclopropylmethyl-3,14β-dihydroxy-4,5α-epoxy-6α-(1-chloro-4-hydroxyisoquinoline-3-carboxamido)morphinan]",Emax,[1],19.8 ± 0.8%
same,Selectivity δ/µ,[10],> 15
"O=C(N[C@H]1CC[C@@]2(O)[C@H]3Cc4ccc(O)c5c4[C@@]2(CCN3CC2CC2)[C@H]1O5)c1ncc2ccccc2c1O [Compound 6, 17-Cyclopropylmethyl-3,14β-dihydroxy-4,5α-epoxy-6α-(4-hydroxyisoquinoline-3-carboxamido)morphinan]",Emax,[1],20.5 ± 0.9%
"O=C(N[C@H]1CC[C@@]2(O)[C@H]3Cc4ccc(O)c5c4[C@@]2(CCN3CC2CC2)[C@H]1O5)c1cc2ccc([N+](=O)[O-])cc2cn1 [Compound 12, 17-Cyclopropylmethyl-3,14β-dihydroxy-4,5α-epoxy-6α-(7-nitroisoquinoline-3-carboxamido)morphinan]",less potent than naltrexone in the MOR [35S]GTPγS binding assay,[1],≥ 200 fold
"Cc1nc(C(=O)N[C@H]2CC[C@@]3(O)[C@H]4Cc5ccc(O)c6c5[C@@]3(CCN4CC3CC3)[C@H]2O6)cc2ccccc12 [Compound 10, 17-Cyclopropylmethyl-3,14β-dihydroxy-4,5α-epoxy-6α-(1-methylisoquinolin-3-carboxamido)morphinan]",Emax,[1],22.2 ± 0.4%
"CN(C)c1ccc2cc(C(=O)N[C@H]3CC[C@@]4(O)[C@H]5Cc6ccc(O)c7c6[C@@]4(CCN5CC4CC4)[C@H]3O7)ncc2c1 [Compound 13, 17-Cyclopropylmethyl-3,14β-dihydroxy-4,5α-epoxy-6α-(7-dimethylaminoisoquinoline-3-carboxamido)morphinan]",Selectivity δ/µ,[10],> 15
"O=C(CNC(=O)c1cc2ccccc2cn1)N[C@H]1CC[C@@]2(O)[C@H]3Cc4ccc(O)c5c4[C@@]2(CCN3CC2CC2)[C@H]1O5 [Compound 3, 17-Cyclopropylmethyl-3,14β-dihydroxy-4,5α-epoxy-6α-[2-(isoquinoline-3-carboxamido)acetamido}morphinan]",Emax,[1],< 15%
"O=C(N[C@H]1CC[C@@]2(O)[C@H]3Cc4ccc(O)c5c4[C@@]2(CCN3CC2CC2)[C@H]1O5)c1cc2ccccc2cn1 [NAQ, 17-cyclopropylmethyl-3,14β-dihydroxy-4,5α-epoxy-6α-(isoquinoline-3′-carboxamido)morphinan, reference compound]","DOR [35S]GTPγS potency, less potent compared to naltrexone",[7],7- to 25 fold
